In the supplement of paper PMC10307832:

Legend:
Assay in all cases: relative viability (nuclei count vs DMSO), 5 days (fraction); higher = more cells survive
Indole-3-carbinol = compound: OCc1c[nH]c2ccccc12 [Indole-3-carbinol]
Summary of the method: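 Lung cancer cell lines were seeded into 1536-well plates, kept overnight at 37 °C and pinned with five library-drug doses (not always all listed) spaced by √10. After 5 days, nuclei were Hoechst-stained, imaged at 4× and counted with MetaXpress. Viability is treated-well nuclei over vehicle-well nuclei, taken as a median across plates. Plates needed control CV below 25% and at least one doubling.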

[1] = compound: OCc1c[nH]c2ccccc12 [Indole-3-carbinol] + Cc1nc(Nc2ncc(C(=O)Nc3c(C)cccc3Cl)s2)cc(N2CCN(CCO)CC2)n1 [Dasatinib] (partner 0.075 µM)
Summary of the method: (§1)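 Relative viability was taken as the ratio of nuclei in treated wells to nuclei in vehicle wells. Lung cancer cell lines in 1536-well plates received compounds by pin tool one day after seeding, either one drug alone or a fixed anchor-drug dose plus five library-drug doses (not always all listed) in √10 steps. Nuclei were counted on 4× images after 5 days of treatment, and values are medians of duplicate plates.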

[2] = compound: OCc1c[nH]c2ccccc12 [Indole-3-carbinol] + O=C(c1cc(Cc2n[nH]c(=O)c3ccccc23)ccc1F)N1CCN(C(=O)C2CC2)CC1 [Olaparib] (partner 8 µM)
Summary of the method: as §1

[3] = compound: OCc1c[nH]c2ccccc12 [Indole-3-carbinol] + Cc1nc(NC(=O)N2CCC[C@H]2C(N)=O)sc1-c1ccnc(C(C)(C)C(F)(F)F)c1 [Alpelisib] (partner 2 µM)
Summary of the method: as §1

[4] = compound: OCc1c[nH]c2ccccc12 [Indole-3-carbinol] + C[C@@H](Oc1cc(-c2cnn(C3CCNCC3)c2)cnc1N)c1c(Cl)ccc(F)c1Cl [Crizotinib] (partner 1 µM)
Summary of the method: as §1

Cell Line	relative viability (Indole-3-carbinol; 0.253 µM)	relative viability (Indole-3-carbinol; 0.8 µM)	relative viability (Indole-3-carbinol; 2.53 µM)	relative viability (Indole-3-carbinol; 8 µM)	relative viability ([1]; first compound 0.253 µM)	relative viability ([1]; first compound 0.8 µM)	relative viability ([1]; first compound 2.53 µM)	relative viability ([1]; first compound 8 µM)	relative viability ([2]; first compound 0.253 µM)	relative viability ([2]; first compound 0.8 µM)	relative viability ([2]; first compound 2.53 µM)	relative viability ([2]; first compound 8 µM)	relative viability ([3]; first compound 0.253 µM)	relative viability ([3]; first compound 0.8 µM)	relative viability ([3]; first compound 2.53 µM)	relative viability ([3]; first compound 8 µM)	relative viability ([4]; first compound 0.253 µM)	relative viability ([4]; first compound 0.8 µM)	relative viability ([4]; first compound 2.53 µM)	relative viability ([4]; first compound 8 µM)
HCC-78	1.05	0.83	0.991	1.06	0.335	0.436	0.392	0.535	0.958	0.758	0.798	0.819	0.346	0.309	0.269	0.334	0.307	0.328	0.369	0.342
HCC-366	1.09	0.905	0.999	1.03	0.626	0.721	0.724	0.601	0.459	0.386	0.35	0.309	0.505	0.264	0.48	0.381	0.606	0.497	0.732	0.561
HCC-827	1.07	1.03	1.06	0.987	0.338	0.315	0.316	0.357	0.67	0.621	0.719	0.61	0.911	1	0.99	0.985	0.9	1.03	0.945	0.892
HOP-62	1.02	0.933	1.03	0.939	0.701	0.693	0.719	0.651	0.541	0.368	0.525	0.399	1.01	0.795	0.867	0.929	0.621	0.912	0.889	0.924
IA-LM	0.962	1.11	1.04	0.905	–	–	–	–	0.89	0.815	0.868	0.752	0.672	0.866	0.77	0.713	0.722	1.08	0.863	0.738
LC-2-ad	1.04	0.951	0.971	1.01	0.657	0.735	0.589	0.595	0.768	0.737	0.696	0.656	0.91	0.874	0.945	0.856	0.514	0.439	0.484	0.42
LCLC-97TM1	1.08	1.1	1.02	0.92	0.835	0.949	0.944	0.908	0.38	0.552	0.489	0.265	0.203	0.277	0.242	0.227	0.368	0.534	0.389	0.442
LCLC-103H	0.889	1.01	0.932	0.915	0.416	0.489	0.428	0.441	0.732	0.734	0.763	0.633	0.869	0.882	0.923	0.899	1.13	1.12	1.01	0.977
